Results from patent US9493542B2, “Methods of using ERBB2 conjugate peptides” (Augusta University Research Institute, Inc., priority 2013, dated 2016).

What was measured:
[1] = system: HSP90; experiment: HSP90 inhibition by 17-AAG: ErbB2 and Erbin levels and ErbB2 complex; type: cell-based
From the text: Erbin regulation of ErbB2 stability was investigated. […] Intriguingly, the effect of 17-AAG could not be blocked by Erbin overexpression (data not shown), indicating Erbin acts upstream or at level of HSP90. ErbB2, HSP90, and Erbin can form a ternary complex necessary for ErbB2 stability. HSP90 as well as Erbin was detectable in the complex of ErbB2 and Erbin interacted HSP90 (data not shown). […] Conversely, Erbin knockdown inhibited the HSP90-ErbB2 interaction (data not shown).

[2] = molecular target: T1, Erbin-ErbB2 interaction (Homo sapiens, UniProt Q96RT1); experiment: Co-immunoprecipitation of Flag-ErbB2 with Myc-Erbin from lysates incubated with peptide; type: binding; conditions: in vitro; lysates with Flag-ErbB2 or Myc-Erbin, anti-Myc precipitation; compared to control peptide
T1 construct: HEK293 cells were transfected with Flag-ErbB2 alone or together with full length Erbin; expressed in transfected cells; host or cells: Transfected cells
T1 sequence (Q96RT1 whole entry): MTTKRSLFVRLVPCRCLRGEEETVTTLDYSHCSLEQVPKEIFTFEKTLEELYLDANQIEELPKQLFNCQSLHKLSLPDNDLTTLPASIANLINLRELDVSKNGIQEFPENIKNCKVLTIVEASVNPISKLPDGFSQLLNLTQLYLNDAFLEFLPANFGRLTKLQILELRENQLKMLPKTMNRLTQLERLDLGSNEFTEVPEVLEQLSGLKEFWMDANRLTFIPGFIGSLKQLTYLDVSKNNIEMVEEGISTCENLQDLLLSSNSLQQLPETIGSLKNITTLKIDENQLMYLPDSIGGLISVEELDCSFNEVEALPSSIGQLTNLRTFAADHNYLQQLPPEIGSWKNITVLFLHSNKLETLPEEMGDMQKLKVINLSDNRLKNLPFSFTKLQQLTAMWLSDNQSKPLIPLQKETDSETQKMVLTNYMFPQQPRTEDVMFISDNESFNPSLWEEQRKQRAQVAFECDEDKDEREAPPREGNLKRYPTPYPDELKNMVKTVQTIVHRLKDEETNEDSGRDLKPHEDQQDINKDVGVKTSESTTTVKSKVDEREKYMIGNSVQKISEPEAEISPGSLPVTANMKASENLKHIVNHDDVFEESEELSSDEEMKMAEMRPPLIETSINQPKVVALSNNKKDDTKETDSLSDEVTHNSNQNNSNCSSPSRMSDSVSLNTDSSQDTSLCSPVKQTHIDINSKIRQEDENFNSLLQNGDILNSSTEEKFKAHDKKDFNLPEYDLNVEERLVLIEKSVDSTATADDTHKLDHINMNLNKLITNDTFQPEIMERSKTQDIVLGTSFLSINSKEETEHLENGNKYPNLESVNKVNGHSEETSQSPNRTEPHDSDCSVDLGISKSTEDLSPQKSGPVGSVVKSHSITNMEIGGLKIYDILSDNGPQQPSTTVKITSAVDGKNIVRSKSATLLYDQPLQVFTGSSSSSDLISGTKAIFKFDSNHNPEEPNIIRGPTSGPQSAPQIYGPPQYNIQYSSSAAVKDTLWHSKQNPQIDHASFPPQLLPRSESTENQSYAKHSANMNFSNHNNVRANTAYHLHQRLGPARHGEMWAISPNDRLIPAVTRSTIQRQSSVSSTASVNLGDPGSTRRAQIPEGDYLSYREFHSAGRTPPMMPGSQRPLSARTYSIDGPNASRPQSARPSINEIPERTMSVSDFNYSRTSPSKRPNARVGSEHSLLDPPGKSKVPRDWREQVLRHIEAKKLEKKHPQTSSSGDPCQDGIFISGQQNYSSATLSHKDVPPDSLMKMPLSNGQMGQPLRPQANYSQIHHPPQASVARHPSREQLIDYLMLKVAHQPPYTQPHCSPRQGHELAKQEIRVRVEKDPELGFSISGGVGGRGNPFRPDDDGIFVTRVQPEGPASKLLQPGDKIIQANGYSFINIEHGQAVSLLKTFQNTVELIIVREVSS
From the text: FIGS. 5A-5H show the requirement of the Erbin-ErbB2 interaction for ErbB2 stabilization and autophosphorylation and ErbB2-dependent proliferation of breast cancer cells. (A)-(B) Quantitative analysis of pErbB2 and ErbB2 levels in western blots showing decreased ErbB2 expression and autophosphorylation by Erbin-PDZ domain. HEK293 cells were transfected with Flag-ErbB2 with increasing doses of Myc-Erbin-PDZ. Cell lysates were blotted with antibodies against ErbB2, pErbB2 and Myc. (C) Quantitative analysis of western blot data showing the disruption of the Erbin-ErbB2 interaction by B2tail. Lysates of transfected cells expressing Flag-ErbB2 or Myc-Erbin were incubated with control peptide (Ctrl) or B2tail. The Erbin complex was precipitated using anti-Myc antibody and probed for ErbB2. n=3, *P<0.05, compared to Ctrl. […] Cells were treated with 20 μM TAT-Ctrl or TAT-B2tail peptide for 24 hours and analyzed by MTS assay. […]
For immunoprecipitation, cells were lysed in lysis buffer (50 mM Tris-HCl, pH 7.4, 150 mM NaCl, 1% NP-40, 0.5% Triton-X-100, 1 mM PMSF, 1 mM EDTA, 5 mM NaF, 2 mM Na3VO4, and protease inhibitor cocktails). […] Immunoreactive bands were visualized using enhanced chemiluminescence (Pierce), scanned with an Epson 1680 scanner, and analyzed with Image J. […]

[3] = system: SKBR3 cells; experiment: MTS proliferation assay, SKBR3 cells; type: cell-based; conditions: 20 μM peptide, 24 hours
From the text: (§1) FIGS. 5A-5H show the requirement of the Erbin-ErbB2 interaction for ErbB2 stabilization and autophosphorylation and ErbB2-dependent proliferation of breast cancer cells. (A)-(B) Quantitative analysis of pErbB2 and ErbB2 levels in western blots showing decreased ErbB2 expression and autophosphorylation by Erbin-PDZ domain. HEK293 cells were transfected with Flag-ErbB2 with increasing doses of Myc-Erbin-PDZ. Cell lysates were blotted with antibodies against ErbB2, pErbB2 and Myc. (C) Quantitative analysis of western blot data showing the disruption of the Erbin-ErbB2 interaction by B2tail. Lysates of transfected cells expressing Flag-ErbB2 or Myc-Erbin were incubated with control peptide (Ctrl) or B2tail. The Erbin complex was precipitated using anti-Myc antibody and probed for ErbB2. n=3, *P<0.05, compared to Ctrl. […] SKBR3 cells were incubated with 20 μM TAT-Ctrl or TAT-B2tail, for 1 hour prior to analysis of ErbB2 stability. n=3, *P<0.05, **P<0.01, compared to TAT-Ctrl. […] Cells were treated with 20 μM TAT-Ctrl or TAT-B2tail peptide for 24 hours and analyzed by MTS assay. […] (F) PDZ deletion inhibited tumorigenesis in MMTV-neu mice on incipient congenic FVB background. […]
(§2) Cell proliferation was measured by MTS assay, as described previously (Zhang, S., et al., Nature medicine, 17, 461-469, 2011). […] Optical density was measured at wavelength of 490 nm.

[4] = system: ErbB2; experiment: ErbB2 stability and pErbB2 in SKBR3 cells after cycloheximide (Western blot); type: cell-based; parameters: dose or concentration left out as unconfirmed; conditions: TAT-B2tail for 1 hour prior to CHX, compared to TAT-Ctrl
[5] = system: Human breast BT474 cancer cells; experiment: BT474 breast tumor growth in fat pads of nude mice, intratumoral peptide injection; type: in vivo; conditions: 25 μl 5 mM peptide injected into tumors twice a week, one month, versus TAT-Ctrl
Method: FIG. 7 is a microscopy image of a breast cancer tumor treated with Tat-ErbB2tail. TAT-ErbB2tail peptide inhibits breast tumor growth in nude mice. Human breast BT474 cancer cells (100 μl, 3.0×10^5 cells in 50% Matri-gel) were injected into fat pads of both sides of female mice. Resulting tumors were injected 2 weeks later with control (TAT-ctrl, left) or B2tail (TAT-B2tail, right) peptide (25 u.l, 5 mM), twice a week. Shown were representative images before injection (A, A′) and one month after injection (B, B′).
The results identify the ErbB2-Erbin interaction as a therapeutic target for fighting ErbB2-positive breast cancers. To test this, B2tail was tested for the ability to inhibit tumor growth in mice. Human breast BT474 cancer cells (100 ul, 3.0×10^5 cells in 50% Matri-gel) were injected into fat pads of both sides of virgin, female mice. Resulting tumors were injected 2 weeks later with control (TAT-Ctrl) or B2tail (TAT-B2tail) peptide (25 μl, 5 mM), twice a week[[.]].

[6] = system: BT474 cells; experiment: MTS proliferation assay, BT474 cells; type: cell-based, human; conditions: 20 μM peptide, 24 hours
From the text: as §1, §2

[7] = molecular target: T2, ErbB2 (Homo sapiens, UniProt P04626); experiment: Coexpression of Erbin PDZ domain with Flag-ErbB2 in HEK293 cells (Western blot); type: cell-based; conditions: Flag-ErbB2 with increasing doses of Myc-Erbin-PDZ
T2 construct: expressed in transfected cells; host or cells: HEK293
From the text: as §1, with “background. Erbin^ΔC/ΔC mice were backcrossed for 5 generations with FVB wild types and then crossed with FVB-congenic MMTV-neu.” for “background.”

[8] = 17-AAG treatment (data not shown)

Q: Which ErbB2 degradation [1, 8] does the source give for `C=CCNC1=C2C[C@@H](C)C[C@H](OC)[C@H](O)[C@@H](C)/C=C(\C)[C@H](OC(N)=O)[C@@H](OC)/C=C\C=C(/C)C(=O)NC(=CC1=O)C2=O` [17-AAG] here?
A: Its ErbB2 degradation is “resulted in ErbB2 degradation”.

Q: And the Erbin levels [1, 8]?
A: Its Erbin levels is “no effect”.

Q: And the “ErbB2 level after brief treatment” value ([1]; 17-AAG, 1 hour)?
A: The value was “without altering ErbB2 level”.

Q: What about the “amount of Erbin in the ErbB2 complex” value ([1]; 17-AAG, 1 hour) of the same molecule?
A: The value was “reduced”.

Q: How did the “disruption of the Erbin-ErbB2 interaction” value [2] turn out when PTAENPEYLGLDVPV [B2tail] was run?
A: The value was “able to disrupt the Erbin-ErbB2 interaction”.

Q: Which decrease of proliferation [3] does the source give for “YGRKKRRQRRR-G-PTAENPEYLGLDVPV [TAT-B2tail]” here?
A: Its decrease of proliferation is “about 40%”.

Q: What about the “ErbB2 reduction (stability) after CHX” value [4] of the same molecule?
A: The value was “ErbB2 reduction was faster”.

Q: And the pErbB2 levels [4]?
A: Its pErbB2 levels is “pErbB2 levels were reduced”.

Q: And the “size of breast tumors” value [5]?
A: The value was “appeared to decrease”.

Q: And the decrease of proliferation [6]?
A: The decrease of proliferation was about 35%.

B1: PDZ domain of Erbin: Erbin PDZ domain, starts at amino acid 1318 of Erbin, expressed as Myc-tagged construct in HEK293 cells (protein)
chain: AKQEIRVRVEKDPELGFSISGGVGGRGNPFRPDDDGIFVTRVQPEGPASKLLQPGDKIIQANGYSFINIEHGQAVSLLKTFQNTVELIIVREV
modifications: Myc tag; PDZ domain
notes: Erbin PDZ domain, starts at amino acid 1318 of Erbin, expressed as Myc-tagged construct in HEK293 cells
Q: What does the source list for B1?
A: ErbB2 phosphorylation (pErbB2) [7]: reduced; levels of ErbB2 [7]: reduced
